{"source": "patent US20190060249A1", "about": "(priority 2017, published 2019)", "key": {"Human salivary cells": {"tested_on": "Human salivary cells", "assay": "Salisphere formation assay, human", "assay_type": "cell-based", "conditions": "25 μM Alda-341; cells from normal salivary gland tissue of head and neck cancer patients", "method": "Salisphere formation assay: Cells isolated from mouse submandibular glands (SMG) were FACS sorted using cell surface markers EpCAM and CD24 as previously described and seeded on matrigel (BD Biosciences, BD356235). Cells were grown in DMEM/F12+GlutaMax (Gibco, 10565-018) media containing 10% FBS, 1× anti-anti, 1% N2 supplement (Gibco), 20 ng/mL […] (Sigma-Aldrich), 20 ng/mL fibroblast growth factor-2 (Sigma-Aldrich), 10 μg/mL insulin (Sigma-Aldrich), 1 μM dexamethasone (Sigma-Aldrich), 10 μM […] (Stem Cell Technologies). Spheres were passaged every 7 days by dissociating into single cells by incubating in 1 mg/mL dispase (BD Biosciences) for 20 minutes and 0.25% trypsin-EDTA for 20 minutes. Spheres were grown for 7 days and imaged with a BZ-X710 Keyence microscope using the z-stack function. Images were stitched together into a single image and analyzed using ImageJ (NIH) to quantify sphere number and area. Experiments were repeated at least 3 independent times.\nSphere number per well quantified by Image J (NIH). 4 replicates per group.\nSalivary gland tissue dissociation: Mouse and human salivary gland cells were isolated as previously described in, Szlavik, V., Szabo, B., Vicsek, T., Barabas, J., Bogdan, S., Gresz, V., Varga, G., O'Connell, B., and Vag, J. (2008) Differentiation of primary human submandibular gland cells cultured on basement membrane extract. […]"}, "[1]": {"tested_on": "murine WT EpCAM+/CD24+-sorted cells", "assay": "Annexin V assay", "assay_type": "cell-based, mouse", "conditions": "100 μM Alda-341; Annexin V and propidium iodide, FACS", "method": "Annexin V^+PI^+ are interpreted as late apoptotic cells and appear in the upper right quadrant. 5-6 replicates per group.\nCells were dissociated from matrigel, stained with Biolegend's FITC Annexin V Apoptosis Detection Kit with Propidium Iodide ([…]), and analyzed by flow cytometry. Annexin V^+PI^− cells were analyzed as early apoptotic cells and Annexin V^+PI^+ cells were analyzed as late apoptotic cells. Five to six replicates per group were assayed."}, "[2]": {"conditions": "C57BL/6 female mice irradiated with 30 Gy, treated 8 weeks with Alda-341", "method": "Pathology: A complete necropsy was performed by a certified veterinarian. Tissues from brain, heart, kidney, liver, esophagus, thymus, trachea, thyroid, lung, spleen, pancreas, trachea, stomach, pancreas, intestines, bladder, uterus and ovary were fixed on slides and scored for inflammation, necrosis, and apoptosis from a scale of 0 to 5. A complete blood count and blood chemistry panel was assessed by Stanford's Veterinary Services Center."}}, "data": [{"smiles": "C=C(C)[C@H]1CC=C(C)CC1", "note": "[Alda-341, D-limonene]", "values": [{"measurement": "more salispheres than untreated cells", "setting": "Human salivary cells", "value": "about 30%"}, {"measurement": "fewer early and late apoptotic cells compared to vehicle control", "setting": "[1]", "value": "about 60%"}, {"measurement": "complete blood count and blood chemistry panel", "setting": "[2]", "value": "normal complete blood count and blood chemistry panel"}]}]}
